Results as given in US20100069481A1, “METHODS AND COMPOSITIONS FOR THE TREATMENT OF CANCER” (Bionovo, Inc., priority 2008, published 2010).

Experiments:
[1] = system: breast cancer cells (MDA MB 231, SKBr3); assay: cellular ATP levels, ATP bioluminescence; format: cell-based, human
Protocol: (§1) 1. Induction of the loss of the mitochondrial transmembrane potential (MTP). […] 2. Induction of reactive oxygen species (ROS). […] 3. […] 4. Compounds were tested for induction of DNA damage using test known as comet assay that allows detection of DNA damage in individual cells. […] 6. The mode of cell death (i.e., apoptosis versus necrosis) was studied using several criteria: conversion of cells to positivity for binding Annexin V; DNA fragmentation (characteristic of apoptotic death) and decrease in cellular ATP levels (commonly observed during necrotic death) (FIG. 5). 1. Induction of the loss of the mitochondrial transmembrane potential (MTP). […] 2. Induction of reactive oxygen species (ROS). […] 3. […] 4. Compounds were tested for induction of DNA damage using test known as comet assay that allows detection of DNA damage in individual cells. […] 6. The mode of cell death (i.e., apoptosis versus necrosis) was studied using several criteria: conversion of cells to positivity for binding Annexin V; DNA fragmentation (characteristic of apoptotic death) and decrease in cellular ATP levels (commonly observed during necrotic death) (FIG. 5).

[2] = system: breast cancer cells (MDA MB 231, SKBr3); assay: mitochondrially derived superoxide, MitoSOX staining; format: cell-based, human
Protocol: as §1

[3] = system: breast cancer cells (MDA MB 231, SKBr3); assay: DNA damage, comet assay; format: cell-based, human
Protocol: as §1

[4] = system: breast cancer cells (MDA MB 231, SKBr3); assay: mode of cell death: Annexin V binding, DNA fragmentation; format: cell-based, human
Protocol: as §1

[5] = system: breast cancer cells (MDA MB 231, SKBr3); assay: induction of ROS, CM-H2DCFDA staining; format: cell-based, human
Protocol: as §1
DCFDA is nonfluorescent in reduced form and is readily membrane-permeant. Cellular esterases cleave its acetate groups. The thiol-reactive chloromethyl group then binds to cellular thiols, trapping the dye inside the cell, where oxidation converts it to the fluorescent form. […] It is relatively insensitive to oxidation by superoxide.
FIG. 1. […] The indicated compounds were added to cells at 20 μg/ml growth medium, followed by addition of 10 μM CM-H2 DCFDA. Inhibitor of mitochondrial respiration, NaN3, was added at 10 mM. After 30 minute incubation, cells were washed in PBS and analyzed on FACScan for fluorescence.

[6] = system: two different breast cancer cell lines; assay: induction of ROS (fold), compounds alone and in combination; format: cell-based; details: Table 11
Protocol: In order to better understand the combined activities of the isolated species, several flavanones and flavones isolated from Scutellaria barbata were tested individually and in combination. The flavanones and flavones tested are depicted in FIG. 8. These compounds 1-8 from were tested for induction of ROS, DNA damage and cell death, as described in Example 2.
The results set forth in Tables 10 and 11 were confirmed by performing the experiments in two different breast cancer cell lines.

Row | Structure (SMILES) | cellular ATP levels [1] | generation of mitochondrial superoxide [2] | induction of DNA damage [3] | cell death and its mode [4] | induction of cellular ROS [5] | Induction of ROS (fold) [6] [fold]
1 | O=c1cc(-c2ccc(O)cc2)oc2cc(O)cc(O)c12 [Apigenin] | slight but consistent increase in ATP levels | induce generation of superoxide whose origin is identified as mitochondrial | do not induce DNA damage | induce significant cell death characterized as apoptotic |  | 
2 | O=C1CC(c2ccc(O)cc2)Oc2cc(O)c(O)c(O)c21 (stereo not drawn) [Carthamidin] |  |  | induce DNA damage |  | induce ROS, but of extra-mitochondrial origin | 
3 | O=C1CC(c2ccc(O)cc2)Oc2c(O)c(O)cc(O)c21 (stereo not drawn) [Isocarthamidin] |  |  | induce DNA damage |  | induce ROS, but of extra-mitochondrial origin | 
4 | O=c1cc(-c2ccc(O)cc2)oc2c(O)c(O)cc(O)c12 [Isoscutellarein] |  |  | induce DNA damage | cell death that has hallmarks of programmed necrosis | induce ROS, but of extra-mitochondrial origin | 
5 | O=c1cc(-c2ccc(O)cc2)oc2cc(O)c(O)c(O)c12 [Scutellarein] |  |  | induce DNA damage | cell death that has hallmarks of programmed necrosis | induce ROS, but of extra-mitochondrial origin | 
6 | O=c1cc(-c2ccc(O)cc2)oc2cc(O)cc(O)c12 [cmpd 4] |  |  |  |  |  | 0.6
